Our source for the EC50 and Emax values is patent US9975854B2, “Benzomorphan analogs and use thereof” (Purdue Pharma L.P., priority 2014, dated 2018).

Molecules are shown by their SMILES. Where two headings read alike, the source gives them in different places.

The experiment has as its target μ-opioid receptor (Homo sapiens (Human), UniProt P35372). The experiment in a line: μ-opioid receptor [35S]GTPγS functional assay, HEK-293 or CHO cells. The settings on record: for Emax: relative to DAMGO. The format is biochemical. As to the method: [^35S]GTPγS functional assays were conducted using freshly thawed μ-receptor membranes prepared in-house from a cell line expressing recombinant opioid receptor in a HEK-293, CHO or U-2 OS cell background, or purchased from a commercial source (Perkin Elmer, Shelton, Conn.; or DiscovRx, Fremont, Calif.). Assay reactions were prepared by sequentially adding the following reagents to binding buffer (100 mM NaCl, 10 mM MgCl2, 20 mM HEPES, pH 7.4) on ice (final concentrations indicated): membrane protein (0.026 mg/mL), saponin ([…]), GDP ([…]) and [^35S]GTPγS (0.20 nM; Perkin Elmer, Shelton, Conn.). The prepared membrane solution (190 μl/well) was transferred to 96-shallow well polypropylene plates containing 10 μl of 20× concentrated stock solutions of the agonist [D-Ala^2, N-methyl-Phe^4 Gly-ol^5]-enkephalin (DAMGO) prepared in dimethyl sulfoxide (DMSO). Plates were incubated for 30 min at about 25° C. with shaking. Reactions were terminated by rapid filtration onto 96-well Unifilter GF/B filter plates (Perkin Elmer, Shelton, Conn.) using a 96-well tissue harvester (Perkin Elmer, Shelton, Conn.) followed by three filtration washes with 200 μl of ice-cold wash buffer (10 mM NaH2PO4, 10 mM Na2HPO4, pH 7.4). Filter plates were subsequently dried at 50° C. for 2-3 hr. BetaScint scintillation cocktail (Perkin Elmer, Shelton, Conn.) was added (50 μl/well) and plates were counted using a Packard Top-Count for 1 min/well. Data were analyzed using the sigmoidal dose-response curve fitting functions in GraphPad PRISM v. 3.0, or an in-house function for non-linear, sigmoidal dose-response curve-fitting.
μ GTP EC50 is the concentration of a compound providing 50% of the maximal response for the compound at a μ-opioid receptor.
μ GTP Emax (%) is the maximal effect elicited by a compound relative to the effect elicited by DAMGO, a standard p agonist. Generally, the μ GTP Emax (%) value measures the efficacy of a compound to treat or prevent pain or other Conditions.
In TABLE 4, activity response of certain Compounds of the Invention to the μ- and κ-opioid receptors was determined as described above for functional assays using HEK-293 or CHO cells.
In general terms: GTPγS resists hydrolysis and so accumulates on activated G proteins.

[1] abbreviates: HEK-293 or CHO cells, read-out: GTPγS μ EC50.
Where [2] appears, read: HEK-293 or CHO cells, bound given in uM, read-out: GTPγS μ EC50.

Broadly, the EC50 is the concentration giving half of the maximal effect. For orientation: Emax means the maximal effect, on the per cent scale that the assay sets. On to `CN1CC[C@@]2(C)c3cc(O)ccc3C[C@@H]1[C@H]2N(CCO)CCc1ccc(F)cc1` [Compound 77, (2R,6S,11S)-11-((4-fluorophenethyl)(2-hydroxyethyl)amino)-3,6-dimethyl-1,2,3,4,5,6-hexahydro-2,6-methanobenzo[d]azocin-8-ol], for which the concentration for a half-maximal effect (EC50) under setting [1] turned out to be 0.00796 ± 0.00069 µM. Further, the maximum response (Emax) (HEK-293 or CHO cells) stood at 87 ± 1.73%.

Regarding `CN1CC[C@@]2(C)c3cc(O)ccc3C[C@@H]1[C@@H]2N(C)CC(=O)Nc1ccc(C(F)(F)F)cc1` [Compound 41, 2-(((2R,6S,11R)-8-hydroxy-3,6-dimethyl-1,2,3,4,5,6-hexahydro-2,6-methanobenzo[d]azocin-11-yl)(methyl)amino)-N-(4-(trifluoromethyl)phenyl)acetamide], under setting [2], the EC50 is over 20 µM. Moreover, the maximal effect (Emax) (HEK-293 or CHO cells) was 5.33 ± 1.45%.

Take `COc1ccc2c(c1)[C@]1(C)CCN(C)[C@H](C2)[C@@H]1N(C)C(=O)Nc1nc2ccccc2[nH]1` [Compound 111, 3-(1H-benzo[d]imidazol-2-yl)-1-((2R,6S,11R)-8-methoxy-3,6-dimethyl-1,2,3,4,5,6-hexahydro-2,6-methanobenzo[d]azocin-11-yl)-1-methylurea]: the EC50 under setting [1] is 0.79 ± 0.0985 µM. For the same compound, where the note is “HEK-293 or CHO cells”, the Emax was determined as 67.4 ± 3.48%.

For the compound `CN1CC[C@@]2(C)c3cc(C#N)ccc3C[C@@H]1[C@@H]2NCCc1ccccc1` [Compound 113, (2R,6S,11R)-3,6-dimethyl-11-(phenethylamino)-1,2,3,4,5,6-hexahydro-2,6-methanobenzo[d]azocine-8-carbonitrile], under setting [1], the half-maximal effective concentration (EC50) stood at 11.7 ± 2.81 µM. For the same compound, the maximal response (Emax) (HEK-293 or CHO cells) turned out to be 10.3 ± 1.1%.

As for `COc1ccc2c(c1)[C@]1(C)CCN(C)[C@H](C2)[C@@H]1N(C)C(=O)CN1CCNC(=O)C1` [Compound 44, N-((2R,6S,11R)-8-methoxy-3,6-dimethyl-1,2,3,4,5,6-hexahydro-2,6-methanobenzo[d]azocin-11-yl)-N-methyl-2-(3-oxopiperazin-1-yl)acetamide], the EC50 under setting [2] was over 20 µM. For the setting “HEK-293 or CHO cells”, this compound gave an Emax of 43 ± 2.52%.

Consider `CN1CC[C@@]2(C)c3cc(O)ccc3C[C@@H]1[C@H]2NCCCCNC(=O)OC(C)(C)C` [Compound 19, Tert-butyl (4-(((2R,6S,11S)-8-hydroxy-3,6-dimethyl-1,2,3,4,5,6-hexahydro-2,6-methanobenzo[d]azocin-11-yl)amino)butyl)carbamate], for which, under setting [2], the concentration giving a half-maximal response (EC50) is over 20 µM. In addition, where the note is “HEK-293 or CHO cells”, the Emax came to 0%.

Take `CN1CC[C@@]2(C)c3cc(O)ccc3C[C@@H]1[C@H]2NCCC1CCCCC1` [Compound 17, (2R,6S,11 S)-11-((2-cyclohexylethyl)amino)-3,6-dimethyl-1,2,3,4,5,6-hexahydro-2,6-methanobenzo[d]azocin-8-ol]: the 50% effective concentration (EC50) under setting [1] was determined as 0.0929 ± 0.00079 µM. The Emax (HEK-293 or CHO cells) was found to be 55.3 ± 4.1%.

Turning to `CN1CC[C@@]2(C)c3cc(C(N)=O)ccc3C[C@@H]1[C@@H]2N(C)C(=O)Cc1ccccc1` [Compound 124, (2R,6S,11R)-3,6-dimethyl-11-(N-methyl-2-phenylacetamido)-1,2,3,4,5,6-hexahydro-2,6-methanobenzo[d]azocine-8-carboxamide], the half-maximal effective concentration (EC50) under setting [1] turned out to be 3.54 ± 0.48 µM. For the same compound, under “HEK-293 or CHO cells”, the Emax was 81.6 ± 3.37%.

Take `CN1CC[C@@]2(C)c3cc(C(N)=O)ccc3C[C@@H]1[C@@H]2NCCc1ccccc1` [Compound 114, (2R,6S,11R)-3,6-dimethyl-11-(phenethylamino)-1,2,3,4,5,6-hexahydro-2,6-methanobenzo[d]azocine-8-carboxamide]: the EC50 under setting [1] was determined as 8.62 ± 0.751 µM. For the same compound, where the note is “HEK-293 or CHO cells”, the Emax came out at 71 ± 2.18%.

Consider `CN1CC[C@@]2(C)c3cc(O)ccc3C[C@@H]1[C@@H]2NCc1ccccc1` [Compound 108, (2R,6S,11R)-11-(benzylamino)-3,6-dimethyl-1,2,3,4,5,6-hexahydro-2,6-methanobenzo[d]azocin-8-ol], for which the concentration giving a half-maximal response (EC50) under setting [1] amounted to 11.7 ± 3.29 µM. The compound further displayed a maximal response (Emax) (HEK-293 or CHO cells) of 17.1 ± 0.67%.

For `CN1CCC2(C)c3cc(O)ccc3C[C@@H]1C2NC(=O)CCC(=O)Nc1ccc(F)cc1F` (stereo in doubt) [Compound 34, N^1-(2,4-difluorophenyl)-N^4-((2R,6S,11S)-8-hydroxy-3,6-dimethyl-1,2,3,4,5,6-hexahydro-2,6-methanobenzo[d]azocin-11-yl)succinamide], under setting [2], the EC50 is over 20 µM. For the same compound, the maximum response (Emax) (HEK-293 or CHO cells) was 2.67 ± 0.33%.

With `CN1CCC2(C)c3cc(O)ccc3C[C@@H]1C2NC(=O)Cc1ccsc1` (stereo in doubt) [Compound 31, N-((2R,6S,11S)-8-hydroxy-3,6-dimethyl-1,2,3,4,5,6-hexahydro-2,6-methanobenzo[d]azocin-11-yl)-2-(thiophen-3-yl)acetamide], the EC50 under setting [2] is over 20 µM. Also, the Emax (HEK-293 or CHO cells) turned out to be 1%.

On to `CN(CC1CCN(S(=O)(=O)C2CCCC2)CC1)C1[C@H]2Cc3ccc(O)cc3C1(C)CCN2C` (stereo in doubt) [Compound 60, (2R,6S,11S)-11-(((1-(cyclopentylsulfonyl)piperidin-4-yl)methyl)(methyl)amino)-3,6-dimethyl-1,2,3,4,5,6-hexahydro-2,6-methanobenzo[d]azocin-8-ol], for which the half-maximal effective concentration (EC50) under setting [1] was determined as 0.012 ± 0.00174 µM. Where the note is “HEK-293 or CHO cells”, this compound came in with an Emax of 22.3 ± 2.34%.

As for `CN1CC[C@@]2(C)c3cc(O)ccc3C[C@@H]1[C@H]2N(CCc1ccc(F)cc1)CC(=O)O` [Compound 72, N-(4-fluorophenethyl)-N-((2R,6S,11S)-8-hydroxy-3,6-dimethyl-1,2,3,4,5,6-hexahydro-2,6-methanobenzo[d]azocin-11-yl)glycine], the EC50 under setting [1] stood at 0.338 ± 0.0609 µM. The Emax (HEK-293 or CHO cells) amounted to 101 ± 2.91%.

As for `CN1CC[C@@]2(C)c3cc(O)ccc3C[C@@H]1[C@@H]2N(C)C(=O)Nc1nc2ccccc2[nH]1` [Compound 107, 3-(1H-benzo[d]imidazol-2-yl)-1-((2R,6S,11R)-8-hydroxy-3,6-dimethyl-1,2,3,4,5,6-hexahydro-2,6-methanobenzo[d]azocin-11-yl)-1-methylurea], under setting [1], the half-maximal effective concentration (EC50) was found to be 0.00681 ± 0.00286 µM. The compound further registered a maximal response (Emax) (HEK-293 or CHO cells) of 30.6 ± 1.51%.

For the compound `CCCN(C(=O)Nc1ccc(C#N)cc1)[C@H]1[C@H]2Cc3ccc(O)cc3[C@]1(C)CCN2C` [Compound 92, 3-(4-cyanophenyl)-1-((2R,6S,11R)-8-hydroxy-3,6-dimethyl-1,2,3,4,5,6-hexahydro-2,6-methanobenzo[d]azocin-11-yl)-1-propylurea], the half-maximal effective concentration (EC50) under setting [1] stood at 0.0964 ± 0.00352 µM. Where the note is “HEK-293 or CHO cells”, the maximum response (Emax) was 43.8 ± 1.03%.

With `CN1CC[C@@]2(C)c3cc(O)ccc3C[C@@H]1[C@@H]2NCCCCNC(=O)OC(C)(C)C` [Compound 18, Tert-butyl (4-(((2R,6S,11R)-8-hydroxy-3,6-dimethyl-1,2,3,4,5,6-hexahydro-2,6-methanobenzo[d]azocin-11-yl)amino)butyl)carbamate], the concentration for a half-maximal effect (EC50) under setting [1] was determined as 0.124 ± 0.0183 µM. This compound registered an Emax (HEK-293 or CHO cells) of 48.4 ± 3.28%.

As for `CN1CC[C@@]2(C)c3cc(C(N)=O)ccc3C[C@@H]1C2(O)O` [Compound 118, (2R,6S)-11,11-dihydroxy-3,6-dimethyl-1,2,3,4,5,6-hexahydro-2,6-methanobenzo[d]azocine-8-carboxamide], a half-maximal response (EC50) required 17 ± 0.566 µM. Also, the maximal response (Emax) (HEK-293 or CHO cells) amounted to 6.56 ± 0.6%.

Turning to `CN1CC[C@@]2(C)c3cc(C(=O)O)ccc3C[C@@H]1[C@H]2NCCc1ccc(S(C)(=O)=O)cc1` [Compound 125, (2R,6S,11S)-3,6-dimethyl-11-((4-(methylsulfonyl)phenethyl)amino)-1,2,3,4,5,6-hexahydro-2,6-methanobenzo[d]azocine-8-carboxylic acid], under setting [2], the 50% effective concentration (EC50) is over 20 µM. For the same compound, under “HEK-293 or CHO cells”, the Emax is 0%.
